Reference: patent publication EP2070932A1, “Pyrazolotriazines” (4SC AG, priority 2007, dated 2009)
Where a name gives a salt, the structure may show the parent alone.

Each molecule was assayed on RKO p27 uninduced (proliferating) (assay: Alamar Blue cell viability assay, anti-proliferative / cytotoxic activity on proliferating RKO cells). Conditions: Homo sapiens, RKOp27, 72 h, read-out: -log EC50 [mol/l] RKO p27 uninduced (proliferating) (converted).
Type: cell-based, human
Method: The anti-proliferative / cytotoxic activity of the compounds described herein can be tested on subclones of RKO human colon adenocarcinoma cells (Schmidt et al., Oncogene 19, 2423-2429; 2000) using the Alamar Blue cell viability assay (described in O'Brien et al. Eur J Biochem 267, 5421-5426, 2000). The compounds are dissolved as 10 mM solutions in DMSO and subsequently diluted in semi-logarithmic steps. DMSO dilutions are further diluted 1:100 v:v into Dulbecco's modified Eagle's medium (DMEM) containing 10% fetal calf serum to a final concentration twice as much as the final concentration in the test. RKO subclones are seeded into 96 well flat bottom plates at a density of 4000 cells per well in a volume of 50 µl per well. 24 hours after seeding the 50 µl each of the compound dilutions in DMEM medium are added into each well of the 96 well plate. Each compound dilution is tested as triplicates. Wells containing untreated control cells are filled with 50 µl DMEM medium containing 1% DMSO. The cells are then incubated with the substances for 72 hours at 37°C in a humidified atmosphere containing 5% carbon dioxide. To determine the viability of the cells, 10 µl of an Alamar Blue solution (Biosource) are added and the fluorescence is measured at an extinction of 544 nm and an emission of 590 nm. For the calculation of the cell viability the emission value from untreated cells is set as 100% viability and the emission rates of treated cells are set in relation to the values of untreated cells. Viabilities are expressed as % values. The Graphpad Prism program is used for the calculation of EC50 values for anti-proliferative / cytotoxic activity out of the obtained dose-response curves. […]
`Cc1nn2c(=O)n(Cc3ccccc3)c(C(C(C)C)N(CCCN)C(=O)c3ccc(Cl)c(Cl)c3)nc2c1Cl` (racemic) [Example 11, N-(3-Amino-n-propyl)-N-[(RS)-1-(3-benzyl-8-chloro-7-methyl-4-oxo-3,4-dihydro-pyrazolo[1,5-a][1,3,5]triazin-2-yl)-2-methyl-n-propyl]-3,4-dichloro-benzamide hydrocloride] was tested, and the EC50 was 100 to 1000 nM. With `Cc1ccc(C(=O)N(CCCCN)C(c2nc3c(Cl)c(C)nn3c(=O)n2Cc2ccccc2)C(C)C)cc1` (racemic) [Example 16, N-(4-Amino-n-butyl)-N-[(RS)-1-(3-benzyl-8-chloro-7-methyl-4-oxo-3,4-dihydro-pyrazolo[1,5-a][1,3,5]triazin-2-yl)-2-methyl-n-propyl]-4-methyl-benzamide hydrocloride] the EC50 was 100 to 1000 nM.

Same assay, conditions: Homo sapiens, RKOp27; RKO colon cancer cells, without Ponasterone A, 72 hours incubation, Alamar Blue; read-out: -log EC50 [mol/l] RKO p27 uninduced (proliferating) (converted)
Work on `Cc1ccc(C(=O)N(CCCN)C(c2nc3c(Cl)c(C)nn3c(=O)n2Cc2ccccc2)C(C)C)cc1` (racemic) [Example 1, N-(3-Amino-n-propyl)-N-[(RS)-1-(3-benzyl-8-chloro-7-methyl-4-oxo-3,4-dihydro-pyrazolo[1,5-a][1,3,5]triazin-2-yl)-2-methyl-n-propyl]-4-methyl-benzamide hydrochloride] yielded an EC50 of at most 100 nM. In the case of `Cc1ccc(C(=O)N(CCN)C(c2nc3c(Cl)c(C)nn3c(=O)n2Cc2ccccc2)C(C)C)cc1` (racemic) [Example 2, N-(2-Amino-ethyl)-N-[(RS)-1-(3-benzyl-8-chloro-7-methyl-4-oxo-3,4-dihydro-pyrazolo[1,5-a][1,3,5]triazin-2-yl)-2-methyl-n-propyl]-4-methyl-benzamide hydrochloride], the EC50 is reported as at most 100 nM. `Cc1ccc(C(=O)N(CCCN)C(c2nc3c(Cl)cnn3c(=O)n2Cc2ccccc2)C(C)C)cc1` (racemic) [Example 4, N-(3-Amino-n-propyl)-N-[(RS)-1-(3-benzyl-8-chloro-4-oxo-3,4-dihydro-pyrazolo[1,5-a][1,3,5]triazin-2-yl)-2-methyl-n-propyl]-4-methyl-benzamide hydrochloride] was tested, and the EC50 was at most 100 nM. Molecule `Cc1nn2c(=O)n(Cc3ccccc3)c(C(C(C)C)N(CCCN)C(=O)c3ccc(Cl)cc3)nc2c1Cl` (racemic) [Example 5, N-(3-Amino-n-propyl)-N-[(RS)-1-(3-benzyl-8-chloro-7-methyl-4-oxo-3,4-dihydro-pyrazolo[1,5-a][1,3,5]triazin-2-yl)-2-methyl-n-propyl]-4-chloro-benzamide hydrochloride] has an EC50 of at most 100 nM. `Cc1nn2c(=O)n(Cc3ccccc3)c(C(C(C)C)N(CCCN)C(=O)c3ccc(F)cc3)nc2c1Cl` (racemic) [Example 6, N-(3-Amino-n-propyl)-N-[(RS)-1-(3-benzyl-8-chloro-7-methyl-4-oxo-3,4-dihydro-pyrazolo[1,5-a][1,3,5]triazin-2-yl)-2-methyl-n-propyl]-4-fluoro-benzamide hydrochloride] was tested, and the EC50 was 100 to 1000 nM. In the case of `Cc1cccc(C(=O)N(CCCN)C(c2nc3c(Cl)c(C)nn3c(=O)n2Cc2ccccc2)C(C)C)c1` (racemic) [Example 7, N-(3-Amino-n-propyl)-N-[(RS)-1-(3-benzyl-8-chloro-7-methyl-4-oxo-3,4-dihydro-pyrazolo[1,5-a][1,3,5]triazin-2-yl)-2-methyl-n-propyl]-3-methyl-benzamide hydrochloride], the EC50 is reported as at most 100 nM. For `Cc1nn2c(=O)n(Cc3ccccc3)c(C(C(C)C)N(CCCN)C(=O)c3ccc(Br)cc3)nc2c1Cl` (racemic) [Example 8, N-(3-Amino-n-propyl)-N-[(RS)-1-(3-benzyl-8-chloro-7-methyl-4-oxo-3,4-dihydro-pyrazolo[1,5-a][1,3,5]triazin-2-yl)-2-methyl-n-propyl]-4-bromo-benzamide hydrochloride], the EC50 was at most 100 nM. With `Cc1ccc(C(=O)N(CCCN)C(c2nc3cc(OC(F)F)nn3c(=O)n2Cc2ccccc2)C(C)C)cc1` (racemic) [Example 10, N-(3-Amino-n-propyl)-N-{(RS)-1-[3-benzyl-7-(1,1-difluoro-methoxy)-4-oxo-3,4-dihydro-pyrazolo[1,5-a] [1,3,5]triazin-2-yl]-2-methyl-n-propyl}-4-methyl-benzamide hydrochloride] the EC50 was at most 100 nM. With `Cc1nn2c(=O)n(Cc3ccccc3)c(C(C(C)C)N(CCCN)C(=O)c3cccc(Cl)c3Cl)nc2c1Cl` (racemic) [Example 14, N-(3-Amino-n-propyl)-N-[(RS)-1-(3-benzyl-8-chloro-7-methyl-4-oxo-3,4-dihydro-pyrazolo[1,5-a][1,3,5]triazin-2-yl)-2-methyl-n-propyl]-2,3-dichloro-benzamide hydrochloride] the EC50 was 100 to 1000 nM. Work on `COc1ccc(C(=O)N(CCCN)C(c2nc3c(Cl)c(C)nn3c(=O)n2Cc2ccccc2)C(C)C)cc1` (racemic) [Example 15, N-(3-Amino-n-propyl)-N-[(RS)-1-(3-benzyl-8-chloro-7-methyl-4-oxo-3,4-dihydro-pyrazolo[1,5-a][1,3,5]triazin-2-yl)-2-methyl-n-propyl]-4-methoxy-benzamide hydrochloride] yielded an EC50 of at most 100 nM. `Cc1ccc(C(=O)N(CCCN)C(c2nc3c(Cl)c(OC(F)F)nn3c(=O)n2Cc2ccccc2)C(C)C)cc1` (racemic) [Example 17, N-(3-Amino-n-propyl)-N-{(RS)-1-[3-benzyl-8-chloro-7-(1,1-difluoro-methoxy)-4-oxo-3,4-dihydro-pyrazolo[1,5-a] [1,3,5]triazin-2-yl]-2-methyl-n-propyl}-4-methyl-benzamide hydrochloride] was tested, and the EC50 was at most 100 nM. `COc1cc2nc(C(C(C)C)N(CCCN)C(=O)c3ccc(C)cc3)n(Cc3ccccc3)c(=O)n2n1` (racemic) [Example 20, N-(3-Amino-n-propyl)-N-[(RS)-1-(3-benzyl-7-methoxy-4-oxo-3,4-dihydro-pyrazolo[1,5-a][1,3,5]triazin-2-yl)-2-methyl-n-propyl]-4-methyl-benzamide hydrochlorid] showed an EC50 of at most 100 nM. `COc1nn2c(=O)n(Cc3ccccc3)c(C(C(C)C)N(CCCN)C(=O)c3ccc(C)cc3)nc2c1Cl` (racemic) [Example 21, N-(3-Amino-n-propyl)-N-[(RS)-1-(3-benzyl-8-chloro-7-methoxy-4-oxo-3,4-dihydro-pyrazolo[1,5-a][1,3,5]triazin-2-yl)-2-methyl-n-propyl]-4-methyl-benzamide hydrochloride] showed an EC50 of at most 100 nM.

Same assay, conditions: RKO colon cancer cells, without Ponasterone A, 72 hours incubation, Alamar Blue
`Cc1ccc(C(=O)N(CCCN)C(c2nc3c(Cl)c(C)nn3c(=O)n2Cc2ccccc2)C(C)C)cc1` (racemic) [Example 1a, N-(3-Amino-n-propyl)-N-[(RS)-1-(3-benzyl-8-chloro-7-methyl-4-oxo-3,4-dihydro-pyrazolo[1,5-a][1,3,5]triazin-2-yl)-2-methyl-n-propyl]-4-methyl-benzamide] was tested, and the “-log EC50 [mol/l] RKO p27 uninduced (proliferating)” value (from here on “-log EC50 [mol/l] RKO p27 uninduced”) was “-log EC50 [mol/l] RKO p27 uninduced (proliferating) >= 7.0”. With `Cc1nn2c(=O)n(Cc3ccccc3)c(C(C(C)C)N(CCCN)C(=O)c3ccc(C(F)(F)F)cc3)nc2c1Cl.Cl` (racemic) [Example 9, N-(3-Amino-n-propyl)-N-[(RS)-1-(3-benzyl-8-chloro-7-methyl-4-oxo-3,4-dihydro-pyrazolo[1,5-a][1,3,5]triazin-2-yl)-2-methyl-n-propyl]-trifluoromethyl-benzamide hydrochloride] the “-log EC50 [mol/l] RKO p27 uninduced” value was “-log EC50 [mol/l] RKO p27 uninduced (proliferating) >= 7.0”. In the case of `Cc1ccc(C(=O)N(CCCN)C(c2nc3c(Cl)c(C)nn3c(=O)n2Cc2ccccc2)C(C)C)c(F)c1.Cl` (racemic) [Example 12, N-(3-Amino-n-propyl)-N-[(RS)-1-(3-benzyl-8-chloro-7-methyl-4-oxo-3,4-dihydro-pyrazolo[1,5-a][1,3,5]triazin-2-yl)-2-methyl-n-propyl]-2-fluoro-4-methyl-benzamide hydrocloride], the “-log EC50 [mol/l] RKO p27 uninduced” value is reported as “-log EC50 [mol/l] RKO p27 uninduced (proliferating) >= 7.0”. For `Cc1ccc(C(=O)N(CCCN)C(c2nc3c(Cl)c(C)nn3c(=O)n2Cc2ccccc2)C(C)C)cc1F.Cl` (racemic) [Example 13, N-(3-Amino-n-propyl)-N-[(RS)-1-(3-benzyl-8-chloro-7-methyl-4-oxo-3,4-dihydro-pyrazolo[1,5-a][1,3,5]triazin-2-yl)-2-methyl-n-propyl]-3-fluoro-4-methyl-benzamide hydrocloride], the “-log EC50 [mol/l] RKO p27 uninduced” value was “-log EC50 [mol/l] RKO p27 uninduced (proliferating) >= 7.0”. With `Cc1ccc(C(=O)N(CCCN(C)C)C(c2nc3c(Cl)c(C)nn3c(=O)n2Cc2ccccc2)C(C)C)cc1` (racemic) [Example 19, N-[(RS)-(3-Benzyl-8-chloro-7-methyl-4-oxo-3,4-dihydro-pyrazolo[1,5-a][1,3,5]triazin-2-yl)-methyl-n-propyl]-N-(3-dimethylamino-n-propyl)-4-methyl-benzamide] the “-log EC50 [mol/l] RKO p27 uninduced” value was “-log EC50 [mol/l] RKO p27 uninduced (proliferating) >= 7.0”.
